From PubChem BioAssay (NCI)
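These data come from cells grown in 96-well plates and exposed to compound for 48 hours at five concentrations. Abbreviation: GI50, concentration required for 50% inhibition of growth. TGI: total growth inhibition.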

Experiments:
Assay in all cases: inhibition of tumour cell growth, NCI panel, 48 h
786-0 renal = system: 786-0 renal
A498 renal = system: A498 renal
A549 NSCLC = system: A549 NSCLC
ACHN renal = system: ACHN renal
BT-549 breast = system: BT-549 breast
CAKI-1 renal = system: CAKI-1 renal
CCRF-CEM leukemia = system: CCRF-CEM leukemia
COLO 205 colon = system: COLO 205 colon
DU-145 prostate = system: DU-145 prostate
EKVX NSCLC = system: EKVX NSCLC
HCC-2998 colon = system: HCC-2998 colon
HCT-116 colon = system: HCT-116 colon
HCT-15 colon = system: HCT-15 colon
HL-60(TB) leukemia = system: HL-60(TB) leukemia
HOP-62 NSCLC = system: HOP-62 NSCLC
HOP-92 NSCLC = system: HOP-92 NSCLC
HS 578T breast = system: HS 578T breast
HT29 colon = system: HT29 colon
IGROV1 ovarian = system: IGROV1 ovarian
K-562 leukemia = system: K-562 leukemia
KM12 colon = system: KM12 colon
LOX IMVI melanoma = system: LOX IMVI melanoma
MALME-3M melanoma = system: MALME-3M melanoma
MCF7 breast = system: MCF7 breast
MDA-MB-231 breast = system: MDA-MB-231 breast
MDA-MB-435 = system: MDA-MB-435
MOLT-4 leukemia = system: MOLT-4 leukemia
NCI-H226 lung = system: NCI-H226 lung
NCI-H23 lung = system: NCI-H23 lung

Work on `O=C(/C=C/c1cccnc1)c1ccccc1` yielded a GI50 (786-0 renal) of 7.9 µM, a TGI (786-0 renal) of 21.4 µM and a GI50 (A498 renal) of 11.7 µM. For the same compound, the TGI (A498 renal) was 23.9 µM, the GI50 (A549 NSCLC) was 17.2 µM and the TGI (A549 NSCLC) was 34.2 µM. For the same compound, the GI50 (ACHN renal) was 4.51 µM, the TGI (ACHN renal) was 17.1 µM and the GI50 (BT-549 breast) was 16 µM. For the same compound, the TGI (BT-549 breast) was 29.9 µM, the GI50 (CAKI-1 renal) was 7.21 µM and the TGI (CAKI-1 renal) was 20.6 µM. For the same compound, the GI50 (CCRF-CEM leukemia) was 3.2 µM, the TGI (CCRF-CEM leukemia) was 9.91 µM and the GI50 (COLO 205 colon) was 13.9 µM. The TGI (COLO 205 colon) was 28.8 µM, the GI50 (DU-145 prostate) was 13.9 µM and the TGI (DU-145 prostate) was 26.9 µM. The GI50 (EKVX NSCLC) was 14.1 µM, the TGI (EKVX NSCLC) was 27.7 µM and the GI50 (HCC-2998 colon) was 14.9 µM. It also gave a TGI (HCC-2998 colon) of 29.1 µM, a GI50 (HCT-116 colon) of 2.14 µM and a TGI (HCT-116 colon) of 5.83 µM. It also gave a GI50 (HCT-15 colon) of 4.1 µM, a TGI (HCT-15 colon) of 20.2 µM and a GI50 (HL-60(TB) leukemia) of 7.02 µM. For the same compound, the TGI (HL-60(TB) leukemia) was 28.8 µM, the GI50 (HOP-62 NSCLC) was 13.7 µM and the TGI (HOP-62 NSCLC) was 26.8 µM. For the same compound, the GI50 (HOP-92 NSCLC) was 4.62 µM, the TGI (HOP-92 NSCLC) was 19.2 µM and the GI50 (HS 578T breast) was 10.5 µM. For the same compound, the TGI (HS 578T breast) was 32.7 µM, the GI50 (HT29 colon) was 2.31 µM and the TGI (HT29 colon) was 5.92 µM. The GI50 (IGROV1 ovarian) was 4.97 µM, the TGI (IGROV1 ovarian) was 25.6 µM and the GI50 (K-562 leukemia) was 2.85 µM. It also gave a TGI (K-562 leukemia) of 8.53 µM, a GI50 (KM12 colon) of 2.33 µM and a TGI (KM12 colon) of 6.87 µM. It also gave a GI50 (LOX IMVI melanoma) of 1.86 µM, a TGI (LOX IMVI melanoma) of 3.62 µM and a GI50 (MALME-3M melanoma) of 15.7 µM. The TGI (MALME-3M melanoma) was 35.9 µM, the GI50 (MCF7 breast) was 2.92 µM and the TGI (MCF7 breast) was 12.4 µM. For the same compound, the GI50 (MDA-MB-231 breast) was 12.9 µM, the TGI (MDA-MB-231 breast) was 28.3 µM and the GI50 (MDA-MB-435) was 12.4 µM. The TGI (MDA-MB-435) was 26.7 µM, the GI50 (MOLT-4 leukemia) was 4.32 µM and the TGI (MOLT-4 leukemia) was 20.2 µM. It also gave a GI50 (NCI-H226 lung) of 14.6 µM, a TGI (NCI-H226 lung) of 28.1 µM and a GI50 (NCI-H23 lung) of 17.3 µM.
